# Experimental data: patent publication US7514245B2, “Method for producing chiral α-hydroxycarboxylic acids by enzymatic hydrolysis of chiral cyanohydrins” (DSM Fine Chemicals Austria NFG GmbH & Co. KG, priority 2003, dated 2009)
# What was measured:
# [1] = target: T1, nitrile hydratase of Rhodococcus erythropolis NCIMB 11540 (Rhodococcus erythropolis, UniProt P13448+P13449); experiment: Hydrolysis using the recombinant enzyme (crude lysate of E. coli clone 7.3); format: biochemical; details: substrate approximately 10 mM, 5% DMSO, 30° C., pH 7; for Activity of the nitrile hydratase: relative to 2-hydroxy-4-phenylbutyronitrile (100%)
# T1 construct: made in house; host or cells: E. coli B BL21 (plasmid pMS470Nhase7.3 or pMSNhasetactac7.3), crude lysate
# T1 sequence (P13448 1-207): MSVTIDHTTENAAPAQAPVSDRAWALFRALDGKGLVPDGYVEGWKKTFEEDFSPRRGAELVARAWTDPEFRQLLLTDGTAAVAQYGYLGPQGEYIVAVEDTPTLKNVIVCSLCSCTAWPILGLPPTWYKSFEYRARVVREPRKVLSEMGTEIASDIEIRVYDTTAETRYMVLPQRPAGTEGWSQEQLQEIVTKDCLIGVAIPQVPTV
# T1 sequence (P13449 1-212): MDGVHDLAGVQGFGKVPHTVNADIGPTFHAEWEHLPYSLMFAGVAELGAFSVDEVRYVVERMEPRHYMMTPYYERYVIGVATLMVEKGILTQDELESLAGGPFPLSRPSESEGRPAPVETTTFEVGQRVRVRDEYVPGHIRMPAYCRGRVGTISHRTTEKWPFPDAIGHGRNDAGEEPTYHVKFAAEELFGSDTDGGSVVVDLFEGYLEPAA
# Procedure: In these reactions, cloned nitrile hydratase of Rhodococcus erythropolis NCIMB 11540 was used as crude lysate of E. coli clone 7.3 (produced according to Example 9).
# 50 μl of crude lysate were diluted with 425 μl of buffer (K/Na—PO4 buffer, pH 7, 50 mM) and admixed with 25 μl of an approximately 220 mM substrate solution in DMSO (5 mg of protein/ml substrate concentration approximately 10 mM, 5% DMSO). The reaction was carried out in the Thermomixer at 30° C. and 1000 rpm. After 0, 2, 4, 6, 8, 10, 15, 20, 30, 60 and 120 minutes, in each case one Eppendorf was admixed with 0.5 ml of 1N HCl. After centrifugation (5 min, 13 000 rpm) and corresponding dilution, the concentrations of cyanohydrin and hydroxyamide were determined by HPLC. The activity of the nitrile hydratase was determined from the velocity of formation of hydroxyamide (gradient in the initial range). The standard substrate (100% activity) used was 2-hydroxy-4-phenylbutyronitile. The activity in the hydrolysis of the other substrates was compared with the activity on 2-hydroxy-4-phenylbutyronitrile (Tab. 5).
# [2] = test system: Rhodococcus erythropolis NCIMB 11540 cells; experiment: Enzymatic hydrolysis at different substrate concentrations, Experiment 4.1; format: cell-based; details: 5% DMSO, 30° C.
# Procedure: In experiment 4.1, the reaction was carried out on an analytical scale (reaction volume 1 ml) using 3 substrate concentrations (2.2 g/l, 6.6 g/l, 13.2 g/l).
# The biocatalyst was produced according to Example 1, Variant II, 2 l of fermentation medium, harvest after 20 hours (OD546 6.1). The cells from 8 times 10 ml of fermentation solution were centrifuged off in culture tubes. The resultant cell mass was washed once in each case with 2 ml K/Na-phosphate buffer (pH 6.5, 50 mM). The contents of 2 tubes were lyophilized for determining the dry weight. • Weight: 1. 37 mg of lyophilized cells/10 ml fermentation solution • 2. 30 mg
# The contents of the remaining 6 tubes were resuspended in 950 μl of buffer (OD approximately 40) and transferred to Eppendorfs. To each of these cell suspensions were added 50 μl of variously concentrated substrate solutions (3 concentrations, parallel batches, 5% DMSO as cosolvent). The Eppendorfs were shaken on the Thermomixer at 30° C. and 1000 rpm. For monitoring the conversion rate, in each case 200 μl were withdrawn and admixed with 200 μl of 1N HCl. After centrifugation (5 min, 13 000 rpm) and dilution, the conversion rates were determined by HPLC.
# Following concentrations of (R)-2-chloromandelonitrile were used: • a. Substrate solution: 11 mg of (R)-2-chloromandelonitrile in 250 μl of DMSO (approximately 260 mM) • Substrate concentration in the batch: 2.2 g/l (13.1 mM) • b. Substrate solution: 33 mg of (R)-2-chloromandelonitrile in 250 μl of DMSO (approximately […]) • Substrate concentration in the batch: substrate concentration: 6.6 g/l (39.4 mM) • c. Substrate solution: 66 mg of (R)-2-chloromandelonitrile in 250 μl of DMSO (approximately 1580 mM) • Substrate concentration in the batch: 13.2 g/l (78.8 mM)
smiles,measurement,setting,value
Cc1ccc(C(O)C#N)cc1 (stereo not shown),Activity of the nitrile hydratase,[1],60%
O=C(O)[C@H](O)c1ccccc1Cl [(R)-2-chloromandelic acid],formation of (R)-2-chloromandelic acid,"[2]; batch a: 2.2 g/l (13.1 mM) (R)-2-chloromandelonitrile, 10 min",77%
same,formation of (R)-2-chloromandelic acid,"[2]; batch a: 2.2 g/l (13.1 mM), 20 min",86%
same,formation of (R)-2-chloromandelic acid,"[2]; batch a: 2.2 g/l (13.1 mM), 30 min",92%
same,formation of (R)-2-chloromandelic acid,"[2]; batch a: 2.2 g/l (13.1 mM), 40 min",94%
same,formation of (R)-2-chloromandelic acid,"[2]; batch a: 2.2 g/l (13.1 mM), 50 min",96%
same,formation of (R)-2-chloromandelic acid,"[2]; batch b: 6.6 g/l (39.4 mM), 10 min",45%
same,formation of (R)-2-chloromandelic acid,"[2]; batch b: 6.6 g/l (39.4 mM), 20 min",70%
same,formation of (R)-2-chloromandelic acid,"[2]; batch b: 6.6 g/l (39.4 mM), 30 min",82%
same,formation of (R)-2-chloromandelic acid,"[2]; batch b: 6.6 g/l (39.4 mM), 40 min",89%
same,formation of (R)-2-chloromandelic acid,"[2]; batch b: 6.6 g/l (39.4 mM), 50 min",95%
same,formation of (R)-2-chloromandelic acid,"[2]; batch c: 13.2 g/l (78.8 mM), 10 min",58%
same,formation of (R)-2-chloromandelic acid,"[2]; batch c: 13.2 g/l (78.8 mM), 20 min",85%
same,formation of (R)-2-chloromandelic acid,"[2]; batch c: 13.2 g/l (78.8 mM), 30 min",96%
same,formation of (R)-2-chloromandelic acid,"[2]; batch c: 13.2 g/l (78.8 mM), 40 min",98%
same,formation of (R)-2-chloromandelic acid,"[2]; batch c: 13.2 g/l (78.8 mM), 50 min",100%
N#CC(O)c1ccccc1Cl (stereo not shown),Activity of the nitrile hydratase,[1],100%
N#CC(O)CCc1ccccc1 (stereo not shown) [drawing 3],Activity of the nitrile hydratase,[1],100%
N#CC(O)CCc1ccccc1 (stereo not shown) [2-hydroxy-4-phenylbutyronitrile],activity of the nitrile hydratase in the crude lysate,[1]; E. coli clone 7.3,approximately 0.3 μmol·mg^−1·min^−1
